From article PMC7796107, “Efficient Separation of Phytochemicals from Muehlenbeckia volcanica (Benth.) Endl. by Polarity-Stepwise Elution Counter-Current Chromatography and Their Antioxidant, Antiglycation, and Aldose Reductase Inhibition Potentials” (Molecules, 2021)
Like-named read-outs stand apart in the source and are kept apart here. Marks after values point to notes of the source that are not given here.

Assays:
[1] = DPPH radical scavenging assay; assay type: biochemical; details: Trolox equivalent antioxidant capacity
Procedure: (§1) The antioxidant activities of the 70% methanol extract of M. volcanica and the separated compounds were evaluated using DPPH, ABTS, and ORAC assays. The results were expressed as Trolox equivalent antioxidant capacity (TEAC, µg Trolox/µg extract or µM Trolox/µM compound), which were calculated with the equations obtained from the calibration curves of Trolox standards (final concentrations) versus their DPPH and ABTS radical inhibition (%) and the net AUC value (ORAC assay).
The DPPH radical scavenging assay was carried out using an EL800 microplate reader (Bio-Tek Instruments, Winooski, VT, USA). Briefly, 180 μL of freshly prepared DPPH solution (0.32 mM in methanol) was mixed with 20 μL of sample (dissolved in methanol, extract 250 µg/mL; compounds 62.5–1000 µM) in a 96-well plate. The mixture was incubated for 20 min in the dark at 25 °C, and then, the absorbance was measured at […]. […] Results are expressed in µg Trolox equivalents/µg extract or µM Trolox equivalents/µM compound. The DPPH radical scavenging activity (%) is calculated using Equation (1):(1) %inhibition=1−Asample−Ablank1/Acontrol−Ablank2×100%, where Asample is the absorbance of DPPH solution with a sample, Ablank1 is the absorbance of the test sample without DPPH, Acontrol is the absorbance of DPPH solution without a sample, Ablank2 is the absorbance of methanol, without DPPH or a sample.

[2] = ABTS radical scavenging assay; assay type: biochemical; details: Trolox equivalent antioxidant capacity
Procedure: as §1
The ABTS radical scavenging assay was carried out using the same EL800 microplate reader. Briefly, 0.2 mM of ABTS diammonium salt was prepared in 3.5 mM of potassium persulfate aqueous solution, and the mixture solution was then diluted 10 times using distilled water. The diluted solution was allowed to stand for 24 h in the dark at room temperature (about 25 °C) to produce ABTS radical cations (ABTS^+). For reaction, 290 μL of ABTS^+ solution was mixed with 10 μL of sample (dissolved in methanol, extract 62.5–125 µg/mL; compounds 20–250 µM) in a 96-well plate, and the mixture solution was allowed to react for 10 min at 25 °C in the dark. Then, the absorbance was measured at 750 nm. […] Results are expressed in µg Trolox equivalents/µg extract or µM Trolox equivalents/µM compound. The ABTS radical scavenging activity (%) is calculated using Equation (1) where Asample is the absorbance of ABTS^+ solution with a sample, Ablank1 is the absorbance of the test sample without ABTS^+, Acontrol is the absorbance of ABTS^+ solution without a sample, Ablank2 is the absorbance of buffer, without ABTS^+ or a sample.

[3] = ORAC (oxygen radical absorbance capacity) assay; assay type: biochemical; details: Trolox equivalent antioxidant capacity, ORAC assay (peroxyl radicals)
Procedure: as §1
The ORAC assay was carried out using a Fluoroskan Ascent FL microplate reader (Thermo, Waltham, MA, USA) using the method described previously with minor modifications. Antioxidants can scavenge the peroxyl radicals generated by AAPH, which prevent the degradation of the fluorescein and, therefore, prevent the loss of the fluorescence of fluorescein. Briefly, fluorescein sodium salt (117 nM) and AAPH (40 mM) were freshly prepared in 0.1 M phosphate-buffered saline (PBS, pH 7.4). For reaction, 120 µL of fluorescein sodium salt (117 nM) and 20 µL of sample (dissolved in methanol, extract 10–20 µg/mL; compounds 10–160 µM) were mixed in a black 96-well plate and pre-incubated for 15 min at 37 °C. Next, 60 µL of AAPH (40 mM) was added, and the fluorescence was measured 100 times (interval 1 min) at excitation and emission wavelengths of 485 nm and 538 nm, respectively, by the microplate reader maintained at 37 °C. […] The relative ORAC values are expressed in µg Trolox equivalents/µg extract or µM Trolox equivalents/µM compound.

aldose reductase (AR) = target: T1, aldose reductase (AR) (Rattus norvegicus, UniProt P07943); experiment: Aldose reductase (AR) inhibition assay, rat lens homogenate; assay type: biochemical, Sprague–Dawley rats; details: for IC50: rat lens AR homogenate
T1 construct: centrifuged at 10,000× g for 30 min at 4 °C (Centrifuge 5417R, Eppendorf, Germany) to obtain AR homogenate (in the supernatant); from tissue; host or cells: eye lenses of Sprague–Dawley rats
Procedure: For the extraction of AR, the rat eye lenses were grounded in a precooled mortar (−70 °C) and extracted using 0.1 M PBS (pH 6.2; about 0.5 mL of PBS per two frozen rat lenses).
A 96-well plate-based AR inhibition assay was used in this study, which was modified from a previous method. In principle, the rate of the absorbance decrease of NADPH at 340 nm (OD340 nm) was used for evaluation of the AR inhibitory activity. […] Then, as soon as 20 μL of the substrate (DL-glyceraldehyde dimer, 25 mM in 0.1 M PBS, pH 7.0) was added, the absorbance of the reaction solution at 340 nm was measured for 6 min using an Epoch microplate spectrophotometer (BioTek Instruments, Highland Park, IL, USA). […] The samples were first prepared at high concentrations in DMSO or in a mixture of DMSO and water and then diluted using water shortly before the experiment. The concentration of DMSO was kept within 0.2% (v/v) in the reaction system. […] The AR inhibition ratio (%) for the samples was calculated using Equation (4):(4) %inhibition=1−Slopes−Slopeb/Slopec−Slopeb×100%, where Slopec, Slopes, and Slopeb are the slopes obtained from the OD340 nm versus the reaction time (min) dotted lines of the control group (without sample), sample group (with enzyme and sample), and blank group (without enzyme or sample), respectively. |Slope| is the absolute value of Slope.

[4] = target: fructose-mediated bovine serum albumin (BSA) glycation (Bos taurus, UniProt P02769); experiment: Antiglycation assay, fructose-mediated BSA glycation model; details: for inhibition at 12.5 µM / inhibition at 25 µM / inhibition at 50 µM / inhibition at 100 µM: read-out: Antiglycation activity, inhibition (%)
[5] = tested on: streptozotocin-induced diabetic rats; details: cited from earlier work
[6] = cited from earlier work
diabetic Octodon degus = tested on: diabetic Octodon degus; set-up: method as in PMID 401544; details: oral administration; cited from earlier work
diabetic rats = details: cited from earlier work
[7] = tested on: streptozotocin-induced diabetic cats; details: cited from earlier work
[8] = read-out: AR inhibition activity, inhibition (%)
[9] = 6.25 µM, read-out: AR inhibition activity, inhibition (%)
[10] = 12.5 µM, read-out: AR inhibition activity, inhibition (%)
[11] = 25 µM, read-out: AR inhibition activity, inhibition (%)
[12] = 50 µM, read-out: AR inhibition activity, inhibition (%)

fructose-mediated bovine serum albumin (BSA) glycation, sequence (P02769 25-607): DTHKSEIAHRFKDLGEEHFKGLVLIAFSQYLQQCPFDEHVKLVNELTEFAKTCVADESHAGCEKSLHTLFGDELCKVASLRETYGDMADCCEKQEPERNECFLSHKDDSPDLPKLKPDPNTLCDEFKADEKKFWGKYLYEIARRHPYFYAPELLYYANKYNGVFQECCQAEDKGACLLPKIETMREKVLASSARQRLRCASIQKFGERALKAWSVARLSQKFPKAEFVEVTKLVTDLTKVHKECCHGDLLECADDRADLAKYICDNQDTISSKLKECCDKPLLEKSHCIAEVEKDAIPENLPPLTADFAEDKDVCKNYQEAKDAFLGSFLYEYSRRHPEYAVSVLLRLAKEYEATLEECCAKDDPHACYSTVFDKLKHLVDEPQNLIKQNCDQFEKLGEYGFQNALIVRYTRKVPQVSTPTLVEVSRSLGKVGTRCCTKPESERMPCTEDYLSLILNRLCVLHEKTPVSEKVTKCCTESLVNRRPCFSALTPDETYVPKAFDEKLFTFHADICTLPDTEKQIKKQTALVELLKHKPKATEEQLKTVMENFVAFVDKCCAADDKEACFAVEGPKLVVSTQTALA

Row | Compound | TEAC, DPPH [1] | TEAC, ABTS [2] | TEAC, ORAC [3] | inhibition at 3.125 µM (aldose reductase (AR); [8]) [%] | inhibition at 6.25 µM (aldose reductase (AR); [8]) [%] | inhibition at 12.5 µM (aldose reductase (AR); [8]) [%] | inhibition at 25 µM (aldose reductase (AR); [8]) [%] | IC50 [4] [µM] | inhibition at 12.5 µM [4] [%] | inhibition at 25 µM [4] [%] | inhibition at 50 µM [4] [%] | inhibition at 100 µM [4] [%] | Effect on oxidative stress [5] | inhibition at 6.25 µM (aldose reductase (AR); [9]) [%] | inhibition at 12.5 µM (aldose reductase (AR); [10]) [%] | inhibition at 25 µM (aldose reductase (AR); [11]) [%] | inhibition at 50 µM (aldose reductase (AR); [12]) [%] | other results
1 | O=C(O)[C@H]1O[C@@H](Oc2c(-c3ccc(O)c(O)c3)oc3cc(O)cc(O)c3c2=O)[C@H](O)[C@@H](O)[C@@H]1O [Miquelianin (7), miquelianin] | 1.97 ± 0.02 ^c µM trolox/µM Compound | 0.99 ± 0.05 ^f µM trolox/µM Compound | 5.85 ± 0.20 ^b µM trolox/µM Compound | 29.7 ± 1.21 | 44.5 ± 2.11 | 59.1 ± 6.86 | 76.7 ± 1.21 | 24.5 ± 0.52 | 24.9 ± 2.12 | 49.4 ± 1.26 | 78 ± 2.28 | 90 ± 1.92 |  |  |  |  |  | IC50 (aldose reductase (AR)): 7.93 ± 0.4 µM
2 | C[C@@H]1O[C@@H](Oc2c(-c3ccc(O)c(O)c3)oc3cc(O)cc(O)c3c2=O)[C@H](O)[C@H](O)[C@H]1O [Quercitrin (9), quercitrin] | 0.92 ± 0.01 ^e µM trolox/µM Compound | 1.07 ± 0.05 ^e µM trolox/µM Compound | 5.32 ± 0.29 ^c µM trolox/µM Compound | 94.35 ± 0.3 |  |  |  | 17.6 ± 0.28 | 32.3 ± 0.24 | 75.2 ± 2.52 | 89.1 ± 1.26 | 94.3 ± 1.39 | ameliorate the oxidative stress |  |  |  |  | inhibition at 0.049 µM (aldose reductase (AR); [8]): 12 ± 0.82%; inhibition at 0.098 µM (aldose reductase (AR); [8]): 33.3 ± 2.17%; inhibition at 0.195 µM (aldose reductase (AR); [8]): 54.6 ± 1.78%; Inhibition of AGEs by trapping methylglyoxal [6]: inhibit AGEs by trapping methylglyoxal; Accumulation of sorbitol in the lens (diabetic Octodon degus): significantly decreased; Onset of cataract (diabetic Octodon degus): delayed
3 | O=C(O)c1ccc(O)c(Nc2cc(C(=O)O)ccc2O)c1 [4,4′-dihydroxy-3,3′-imino-di-benzoic acid] | 1.38 ± 0.05 ^d µM trolox/µM Compound | 1.27 ± 0.03 ^c µM trolox/µM Compound | 5.75 ± 0.26 ^b µM trolox/µM Compound |  |  |  |  | 60.5 ± 2.62 | < 0 | 14.9 ± 3.87 | 44.5 ± 2.54 | 68.4 ± 0.92 |  | 8.57 ± 0.06 | 14.4 ± 0.6 | 27.2 ± 0.36 | 53.3 ± 2.76 | IC50 (aldose reductase (AR)): 47 ± 2.28 µM
4 | O=C(O)c1ccc(O)c(O)c1 [Protocatechuic acid (4), protocatechuic acid] | 0.72 ± 0.01 ^f µM trolox/µM Compound | 0.88 ± 0.03 ^g µM trolox/µM Compound | 5.79 ± 0.32 ^b µM trolox/µM Compound |  | 0.96 ± 2.11 | 2.67 ± 2.71 | 7.14 ± 0.6 |  | 5.26 ± 4.29 | 11.4 ± 3.92 | 36.1 ± 0.78 | 48.4 ± 1.76 | ameliorate the oxidative stress |  |  |  |  | inhibition at 50 µM (aldose reductase (AR); [8]): 7.78 ± 1.51%
5 | O=c1c(O)c(-c2ccc(O)c(O)c2)oc2cc(O)cc(O)c12 [Quercetin (10), quercetin] | 2.14 ± 0.03 ^b µM trolox/µM Compound | 3.61 ± 0.03 ^a µM trolox/µM Compound | 6.93 ± 0.30 ^a µM trolox/µM Compound | 12.9 ± 2.11 | 26.3 ± 1.21 | 43 ± 3.02 | 60 ± 1.21 |  | 19.4 ± 1.76 | 35.4 ± 0.92 | 67.47 ± 0.24 | 84.3 ± 1.39 | ameliorate the oxidative stress |  |  |  |  | TEAC, ABTS ([2]; listed as quercetin): 3.61 µM trolox/µM Compound; Inhibition of AGEs by trapping methylglyoxal [6]: inhibit AGEs by trapping methylglyoxal; Progression of lens opacification (diabetic rats): delay the progression of lens opacification; Impaired cardiac function [7]: partially reverse the impaired cardiac function
6 | O=C(O)c1cc(O)c(O)c(O)c1 [Gallic acid (3), gallic acid] | 3.01 ± 0.04 ^a µM trolox/µM Compound | 3.35 ± 0.06 ^b µM trolox/µM Compound | 1.43 ± 0.08 ^d µM trolox/µM Compound |  |  |  |  |  | < 0 | < 0 | 3.69 ± 2.97 | 8.42 ± 1.27 | ameliorate the oxidative stress | < 0 | 4.16 ± 5.43 | 4.16 ± 1.81 | 13.5 ± 1.21 | TEAC, DPPH ([1]; listed as gallic acid): 3.01 µM trolox/µM Compound
7 | Cl.N=C(N)NN [Aminoguanidine hydrochloride, aminoguanidine hydrochloride, reference compound] |  |  |  |  |  |  |  |  |  |  |  |  |  |  |  |  |  | Antiglycation activity, inhibition (%) ([4]; 1000 µM): 10.99 ± 0.07%; Antiglycation activity, inhibition (%) ([4]; 2000 µM): 44.58 ± 0.54%; Antiglycation activity, inhibition (%) ([4]; 4000 µM): 81.26 ± 0.88%; Antiglycation IC50 ([4]; fructose-mediated BSA glycation, 14 days, 37 °C): 317.36 µg/mL; IC50 ([4]; read-out: Antiglycation activity, IC50, fructose-mediated BSA glycation): 2181 ± 8.11 µM
8 | O=C(O)C1=C[C@@H](O)[C@@H](O)[C@H](O)C1 [Shikimic acid (2), shikimic acid] |  |  |  |  |  |  |  |  | < 0 | < 0 | < 0 | < 0 |  | < 0 | 0.32 ± 1.21 | 5.86 ± 5.42 | 7.36 ± 0.3 | 
